Assay results from US20120316192A1, “SUBSTITUTED INDOLO [2,3-A] QUINOLIZINES” (priority 2011, published 2012).

Assays:
[1] = system: HT29 cell line; assay: Apo-ONE homogeneous caspase-3/7 assay (apoptosis); type: cell-based; conditions: HT29, 42 h of treatment
Protocol: (§1) HeLa human cervical carcinoma cell line, the human breast cancer cell line MCF7, the African green monkey kidney cell line BS-C-1 and the human colorectal carcinoma cell lines HCT116 and SW480 were maintained in Dulbecco's Modified Eagle's medium (DMEM, PAA, Pasching Austria). The colorectal cell line HT29 was cultured in McCoy's 5A medium (PAA, Pasching, Austria). The prostate carcinoma cells PC3 and the osteosarcoma cells Saos2 were cultured in RPMI medium (PAA, Pasching Austria). All media were supplemented with 10% fetal calf serum, L-glutamine, penicillin and streptomycin. All cell lines were maintained at 37° C. in a 5% CO2 humidified atmosphere.
(§2) Therefore we measured the caspase-3/7 activity in different cell lines with the Apo-ONE® homogeneous caspase-3/7 assay.
(§3) Caspase-3/7 activities were determined using the Apo-ONE® homogeneous caspase-3/7 assay (Promega, Mannheim Germany) according to the manufacturer's protocol. Briefly, cells were plated in quadruplicates in 384-well cell culture plate. After 24 hours cells were exposed for 42 hours to the compounds at different concentrations. Control cells were treated with 0.5% DMSO or staurosporine (STS). Subsequently cells were lysed with a lysis buffer containing the caspase-3/7 substrate Z-DEVD-R110 and were incubated at room temperature until further analysis. The fluorescence was detected with the TECAN Inifinite® M200 plate reader at excitation/emission wavelength 485/520 nm. The blank value was subtracted from each value and the relative caspase-3/7 activity was calculated compared to the DMSO treated cells.
(§4) These findings correlate with our results from the cell viability assays for these indoloquinolizine.

[2] = system: Saos2 cells; assay: Apo-ONE homogeneous caspase-3/7 assay (apoptosis); type: cell-based; conditions: Saos2, 42 h of treatment
Protocol: as §1, §2, §3, §4

[3] = system: PC3 cell line; assay: Apo-ONE homogeneous caspase-3/7 assay (apoptosis); type: cell-based; conditions: PC3, 42 h of treatment
Protocol: as §1, §2, §3, §4

[4] = system: HeLa cells; assay: FACS analysis of the cell cycle (propidium iodide DNA content); type: cell-based, human; conditions: for cells in G1 phase / cells in G2/M phase: 24 h after treatment; for mitotic index: DMSO control 0.16
Protocol: HeLa human cervical carcinoma cell line, the human breast cancer cell line MCF7, and the human colorectal carcinoma cell line SW480 were maintained in Dulbecco's Modified Eagle's medium (DMEM, PAA, Pasching Austria). The colorectal cell line HT29 was cultured in McCoy's 5A medium (PAA, Pasching, Austria). DMEM medium was supplemented with 10% fetal calf serum, sodium pyruvate, non-essential amino acids, penicillin and streptomycin, McCoy's 5A medium was supplemented with 10% fetal calf serum, penicillin and streptomycin. All cell lines were cultured at 37° C. in a 5% CO2 humidified atmosphere. Further, fluorescent activated cell sorting (FACS) was used successfully to analyze the cell cycle and mitotic arrest under the influence of indoloquinolizines. HeLa cells were fixed and stained for FACS analysis 24 h after compound treatment. Cells were trypsinized and combined with any floating cells, pelleted, and resuspended in 1 ml PBS. Ice cold ethanol (70%) was added, and samples were incubated at −20° C. until analysis. After fixation the cells were pelleted, resuspended in 500 μl staining solution (50 μg/ml propidium iodide, 0.1 mg/ml RNase A, 0.05% Triton X-100) and incubated for 40 min at 37° C. 3 ml PBS were added; the cells were pelleted again and resuspended in 500 μl PBS. The DNA content was measured with a Becton Dickinson LSRII and analyzed with FlowJo 7.5 software. The cell cycle of compound treated HeLa cells was analyzed by fluorescence activated cell sorting (FIG. 1). […] A similar distribution is given in (−)-1-01 treated cells (FIGS. 1c and 1d); here 9% are in G1 and 38% in G2/M phase (25 μM) respectively; 8% in G1 and 40% in G2/M phase (50 μM). This means that the mitotic index is increased by more than two fold (from 0.16 to 0.38 respectively 0.40), indicating a mitotic arrest after compound treatment.

[5] = system: HeLa cells; assay: WST-1 cell viability and proliferation assay; type: cell-based, human; conditions: 19 h; for cell proliferation rate (percent of DMSO control): 50 μM; for IC50: calculated from two and three experiments respectively
Protocol: as §1
(§5) The cell proliferation was determined as a function of the metabolic activity by means of the cell proliferation reagent WST-1 (Roche, Mannheim Germany). Cells were plated in quadruplicates into the wells of 96 well plates and were allowed to attach for 24 hours. Cells were then treated with different concentrations of the compounds for 19 hours. All samples contained 0.5% DMSO. Control cells were treated with 0.5% DMSO or 20 μM doxorubicin or 1 μM staurosporine. After the treatment the WST-1 reagent was added to the cells according to the manufacturer's protocol. The absorbance was measured with the TECAN Inifinite® M200 plate reader at 450/690 nm. The blank value was subtracted from each value and the percentage of viable cells was determined compared to the DMSO treated cells.
(§6) The biological activity of the indoloquinolizines was evaluated in different cell lines by means of WST-1 assay. Cells were treated with different compound concentrations (3.125 up to 50 μM) for 19 h. In HeLa cells the (−)-enantiomers of 1-01 and 1-04 caused the most dramatic decrease in cell proliferation rate with increasing concentrations (FIG. 3). At 50 μM concentration (−)-1-01 reduced the cell proliferation rate to 60% and (−)-1-04 to 67% (FIG. 3).

[6] = system: all cell lines but Saos2; assay: Apo-ONE homogeneous caspase-3/7 assay (apoptosis), summary statement; type: cell-based; conditions: all cell lines but Saos2, 42 h
Protocol: as §1, §2, §3, §4

[7] = system: colorectal cell line HT29; assay: WST-1 cell viability and proliferation assay; type: cell-based; conditions: HT29, 3.125 up to 50 μM, 19 h
Protocol: as §1, §5, §6

[8] = system: prostate carcinoma cells PC3; assay: WST-1 cell viability and proliferation assay; type: cell-based; conditions: PC3, 3.125 up to 50 μM, 19 h
Protocol: as §1, §5, §6

[9] = system: osteosarcoma cells Saos2; assay: WST-1 cell viability and proliferation assay; type: cell-based; conditions: Saos2, 3.125 up to 50 μM, 19 h
Protocol: as §1, §5, §6

[10] = system: HCT116 cells; assay: Apo-ONE homogeneous caspase-3/7 assay (apoptosis); type: cell-based, human; conditions: HCT116, 42 h of treatment
Protocol: as §1, §2, §3, §4

[11] = system: HeLa cells; assay: Apo-ONE homogeneous caspase-3/7 assay (apoptosis); type: cell-based, human; conditions: 42 h of treatment
Protocol: as §1, §2, §3, §4

| Structure (SMILES) | caspase-3/7 activity detected [1] | activation of caspase-3/7 [2] | caspase-3/7 activity detected [3] | cells in G1 phase ([4]; 25 μM) | cells in G2/M phase ([4]; 25 μM) | mitotic index ([4]; 25 μM) | cells in G1 phase ([4]; 50 μM) | cells in G2/M phase ([4]; 50 μM) | mitotic index ([4]; 50 μM) | cell proliferation rate (percent of DMSO control) [5] | IC50 [5] | impact on the apoptosis [6] | reduction in cell viability [7] | reduction in cell viability [8] | decrease in the proliferation rate compared with HeLa [9] | activation of caspase-3/7 [10] | activation of caspase-3/7 [11] | IC50 ([5]; Homo sapiens) |
| --- | --- | --- | --- | --- | --- | --- | --- | --- | --- | --- | --- | --- | --- | --- | --- | --- | --- | --- |
| COC(=O)C1=CC(C(=O)c2ccccc2O)=CN2CCc3c([nH]c4ccccc34)C12C(=O)OC (single isomer, unassigned; (-)) [(−)-1-01, Dimethyl-3-(2-hydroxybenzoyl)-6,7,12,12b-tetrahydroindolo[2,3a]quinolizine-1,12b-dicarboxylate] | only at the 50 μM concentration | concentration dependent increase | only at the 50 μM concentration | 9% | 38% | 0.38 | 8% | 40% | 0.40 | 60% | 28.4 ± 0.61 µM | did not have any impact on the apoptosis | only a slight reduction in cell viability | only a slight reduction in cell viability | more dramatic | concentration dependent increase | concentration dependent increase | – |
| COC(=O)C1=CC(C(=O)c2ccccc2O)=CN2CCc3c([nH]c4ccc(OC)cc34)C12C(=O)OC (single isomer, unassigned; (-)) [(−)-1-04, Dimethyl-3-(2-hydroxybenzoyl)-9-methoxy-6,7,12,12b-tetrahydro-indolo[2,3-a]quinolizine-1,12b-dicarboxylate] | only at the 50 μM concentration | concentration dependent increase | only at the 50 μM concentration | – | – | – | – | – | – | 67% | – | did not have any impact on the apoptosis | only a slight reduction in cell viability | only a slight reduction in cell viability | more dramatic | concentration dependent increase | concentration dependent increase | 15.7 ± 1.43 µM |
